Measurements from patent EP1660440B1, “ACYLOXYALKYL CARBAMATE PRODRUGS, METHODS OF SYNTHESIS AND USE” (priority 2003, dated 2005).

What was measured:
[1] = human, in vivo; cited from earlier work
physchem = settings: aqueous buffer
Description: (§1) The stabilities of prodrugs were evaluated in one or more in vitro systems using a variety of tissue preparations following methods known in the art. The chemical stability of prodrugs in aqueous buffers at pH's of 2.0, 7.4 and 8.0 were also measured. […] Each preparation was incubated with test compound at 37°C for one hour. Aliquots (50 µL) were removed at 0, 30, and 60 min and quenched with 0.1 % trifluoroacetic acid in acetonitrile.

Pancreatin stability = format: in vitro ADME, porcine; settings: pig, 5 µM, pH 7.5, 37 °C, after 60 min
Description: Pancreatin Stability: Stability studies were conducted by incubating prodrug (5 µM) with 1 % (w/v) pancreatin (Sigma, P-1625, from porcine pancreas) in 0.025 M Tris buffer containing 0.5 M NaCl (pH 7.5) at 37 °C for 60 min. The reaction was stopped by addition of 2 volumes of methanol. After centrifugation at 14,000 rpm for 10 min, the supernatant was removed and analyzed by LC/MS/MS.

in vitro [2] = settings: rat
Description: as §1

in vitro [3] = settings: rat, plasma
Description: as §1

Caco-2 cells = settings: human, Caco-2, 200 uM
Description: (§2) For example, cellular permeability may be evaluated by examining the flux of a prodrug across a cultured polarized cell monolayer (e.g., Caco-2 cells). Caco-2 cells obtained from continuous culture (passage less than 28) were seeded at high density onto Transwell polycarbonate filters. Cells were maintained with DMEM / 10% fetal calf serum + 0.1 mM nonessential amino acids + 2 mM L-Gln, 5% CO2/ / 95% O2, 37°C until the day of the experiment. Permeability studies were conducted at pH 6.5 apically (in 50 mM MES buffer containing 1 mM CaCl2, 1mM MgCl2, 150 mM NaCl, 3 mM KCl, 1 mM NaH2PO4, 5 mM glucose) and pH 7.4 basolaterally (in Hanks' balanced salt solution containing 10 mM HEPES) in the presence of efflux pump inhibitors (250 µM MK-571, 250 µM Verapamil, 1 mM Ofloxacin). Inserts were placed in 12 or 24 well plates containing buffer and incubated for 30 min at 37C°. Prodrug (200 µM) was added to the apical or basolateral compartment (donor) and concentrations of prodrug and/or released parent drug in the opposite compartment (receiver) were determined at intervals over 1 hour using LC/MS/MS. Values of apparent permeability (Papp) were calculated using the equation: Papp = Vr (dC/dt)//(ACo) [formula]
(§3) Here Vr is the volume of the receiver compartment in mL; dC/dt is the total flux ofprodrug and parent drug (µM/s), determined from the slope of the plot of concentration in the receiver compartment versus time; Co is the initial concentration of prodrug in µM; A is the surface area of the membrane in cm^2.

in vitro [4] = settings: human, caco-2 homogenate s9
Description: For stability studies, prodrug (5 µM) was incubated in Caco-2 homogenate S9 fraction (0.5 mg protein per mL) for 60 min at 37°C. Concentrations of intact prodrug and released baclofen were determined at zero time and 60 minutes using LC/MS/MS.

[5] = Caco-2 cellular permeability of prodrugs; settings: human
Description: as §2, §3

in vitro [6] = settings: human
Description: as §1

in vitro [7] = settings: human, plasma, % of Baclofen Released
Description: as §1

[8] = format: in vivo; settings: cynomolgus monkeys, intravenous bolus, 1.2 mg/kg
Description: R-Baclofen hydrochloride salt was administered to four male cynomolgus monkeys as an aqueous solution by intravenous bolus injection into the saphenous vein at a dose of 1.2 mg/kg. Blood samples were obtained from all animals at intervals over 24 hours post-dosing. Blood was processed immediately for plasma at 4°C. All plasma samples were subsequently analyzed for R-baclofen using the LC/MS/MS assay described above. The mean R-baclofen exposure AUCinf = 3.6 h.µg/mL.

[9] = liver s9, % of Prodrug Remaining

**Q.** Which elimination half-life [1] does the source give for `NCC(CC(=O)O)c1ccc(Cl)cc1` (racemic) [Baclofen, (±)-4-Amino-3-(4-chlorophenyl)butanoic acid] here?
**A.** 3 to 4 h

**Q.** Which results are given for `CC(C)C(OC(=O)NC[C@H](CC(=O)O)c1ccc(Cl)cc1)OC(=O)C(C)(C)C` (stereo partly drawn) [(43), Sodium 4-[(1-Pivaloyloxyisobutoxy)carbonylamino]-(3R)-(4-chlophenyl)-butanoate]?
**A.** degraded at 1 h (physchem; pH 2, % of Baclofen Released): 0%; degraded at 1 h (physchem; pH 7.4, % of Baclofen Released): 0%; degraded at 1 h (physchem; pH 8, % of Baclofen Released): 0%; metabolised at 1 h, 5 µM (Pancreatin stability; pancreatin, pH 7.5, 1 % (w/v) pancreatin, read-out: % of Baclofen Released): 4%; remaining at 1 h, 5 µM (Pancreatin stability; 1 % (w/v) pancreatin, read-out: % of Prodrug Remaining): 82%; metabolised at 1 h, 2 µM (in vitro [2]; liver s9): 97%; remaining at 1 h, 2 µM (in vitro [2]; [9]): 3%; metabolised at 1 h, 2 µM (in vitro [3]): 29%; Ratio A-BB-A (Caco-2 cells): 2.3; metabolised at 1 h, 5 µM (in vitro [4]): 49%; Papp A→B at 200 µM [5]: 42 ×10⁻⁶ cm/s; Papp B→A at 200 µM [5]: 18 ×10⁻⁶ cm/s; metabolised at 1 h, 2 µM (in vitro [6]; liver s9): 39%; remaining at 1 h, 2 µM (in vitro [6]; [9]): 61%; metabolised at 1 h, 2 µM (in vitro [7]): 2%

**Q.** Which “mean R-baclofen exposure AUCinf” value [8] does the source give for `Cl.NC[C@H](CC(=O)O)c1ccc(Cl)cc1` [R-Baclofen hydrochloride salt] here?
**A.** 3600 ng·h/mL
